Assay results from PMC5559489 (Scientific Reports, 2017).

Key:
[1] = biological target: seasonal influenza A(H3N2) virus neuraminidase (NA) (Influenza A virus, UniProt V9SU56); type: biochemical
[2] = biological target: seasonal influenza B virus neuraminidase (NA) (Influenza B virus, UniProt C0LT34); type: biochemical

CCOC(=O)C1=C[C@@H](OC(CC)CC)[C@H](NC(C)=O)[C@@H](N)C1 [oseltamivir, Oseltamivir]
susceptibility to oseltamivir (WHO definition) [1]: sensitive
susceptibility to oseltamivir (WHO definition) [2]: sensitive
